The values that follow come from patent US11091421B2, “Benzene fused heterocyclic derivative and pharmaceutical composition comprising the same” (TAIWANJ PHARMACEUTICALS CO., LTD., priority 2017, dated 2021).

The target in the assay is autotaxin (Homo sapiens, UniProt Q13822). In words: Autotaxin inhibitor screening assay (phosphodiesterase activity, p-nitrophenol cleaved from bis-(p-nitrophenyl) phosphate, absorbance 410 nm). Type of assay: biochemical. Conditions: pH 9, compound at 30 μM; BNPP 3 mM, pH 9.0, 37° C., 30 minutes; read-out: Inhibition. The protocol: As described above, the compounds in the present disclosure have the effect of inhibiting the activity of autotaxin, and can be used as autotaxin inhibitors. One method for inhibiting activity of autotaxin in environment is administering to the environment an effective amount of the compound of Formula (I). Please refer to the following experiment, the phosphodiesterase activity of autotaxin was measured using the p-nitrophenol that is a yellow product cleaved by autotaxin from the bis-(p-nitrophenyl) phosphate. Compound samples (10 μl) were incubated with autotaxin (10 μl) in a final volume of 200 μl assay buffer (5 mM CaCl2, 50 mM Tris-HCl, pH 9.0) containing bis-(p-nitrophenyl) phosphate (BNPP) at a final concentration of 3 mM at 37° C. After 30 minutes, absorbance at 410 nm of the reacted solution was measured. The percent inhibition for each test article (TA) (compound) was determined using the following equation. % Inhibition=(O.D.vehicle−O.D.TA)/O.D.vehicle×100

In the case of `CS(=O)(=O)Cc1ccc(COc2ccc3c(c2)C/C(=C\c2cc(Cl)cc(Cl)c2)C3=O)cc1` [Compound 124], the inhibition at 30 µM is less than 50%.

Regarding `CS(=O)(=O)NC(=O)c1ccc(COc2ccc3c(c2)C/C(=C\c2cc(Cl)cc(Cl)c2)C3=O)cc1` [Compound 125], the inhibition at 30 µM is greater than 80%.

On to `CS(=O)(=O)c1ccc(COc2ccc3c(c2)C/C(=C\c2ccc(F)c(Cl)c2)C3=O)cc1` [Compound 126], for which the inhibition at 30 µM was less than 50%. The value for `CONC(=O)c1ccc(COc2ccc3c(c2)C/C(=C\c2cc(Cl)cc(Cl)c2)C3=O)cc1` [Compound 127] was 50 to 80%; that for `O=C(NO)c1ccc(COc2ccc3c(c2)C/C(=C\c2cc(Cl)cc(Cl)c2)C3=O)cc1` [Compound 128] was 50 to 80%.

`O=C(O)c1ccc(COc2ccc3c(c2)C/C(=C\c2cc(Cl)cc(C(F)(F)F)c2)C3=O)cc1` [Compound 129]: the inhibition at 30 µM lay in the range of 50 to 80%. For `O=C(O)Cc1ccc(COc2ccc3c(c2)C/C(=C\c2cc(Cl)cc(Cl)c2)C3=O)cc1` [Compound 130], the inhibition at 30 µM was greater than 80%.

Consider `O=C(O)COc1ccc(COc2ccc3c(c2)C/C(=C\c2cc(Cl)cc(Cl)c2)C3=O)cc1` [Compound 131], for which the inhibition at 30 µM is greater than 80%.

As for `COC(=O)c1ccc(COc2ccc3c(c2)C/C(=C\c2cc(Cl)cc(Cl)c2)C3=O)cc1` [Compound 132], the inhibition at 30 µM was less than 50%.

Consider `O=C(O)c1ccc(COc2ccc3c(c2)C/C(=C\c2cc(Cl)cc(Cl)c2)C3O)cc1` (centres unmarked) [Compound 133], for which the inhibition at 30 µM lay in the range of 50 to 80%.

Take `O=C(O)c1ccc(COc2ccc3c(c2)CC(Cc2cc(Cl)cc(Cl)c2)C3=O)cc1` (centres unmarked) [Compound 134]: the inhibition at 30 µM is greater than 80%.
